The source of these data is patent publication US20100267822A1, “AURONES AS ESTROGEN RECEPTOR MODULATORS AND THEIR USE IN SEX HORMONE DEPENDENT DISEASES” (priority 2009, published 2010).

In experiment [1] the target is T1, Recombinant human ERalpha protein (Homo sapiens, UniProt P03372).
T1 construct: purchased MDS Pharma Services 226010; host or cells: insect Sf9 cells (printed as '519')
T1 sequence (P03372 1-595): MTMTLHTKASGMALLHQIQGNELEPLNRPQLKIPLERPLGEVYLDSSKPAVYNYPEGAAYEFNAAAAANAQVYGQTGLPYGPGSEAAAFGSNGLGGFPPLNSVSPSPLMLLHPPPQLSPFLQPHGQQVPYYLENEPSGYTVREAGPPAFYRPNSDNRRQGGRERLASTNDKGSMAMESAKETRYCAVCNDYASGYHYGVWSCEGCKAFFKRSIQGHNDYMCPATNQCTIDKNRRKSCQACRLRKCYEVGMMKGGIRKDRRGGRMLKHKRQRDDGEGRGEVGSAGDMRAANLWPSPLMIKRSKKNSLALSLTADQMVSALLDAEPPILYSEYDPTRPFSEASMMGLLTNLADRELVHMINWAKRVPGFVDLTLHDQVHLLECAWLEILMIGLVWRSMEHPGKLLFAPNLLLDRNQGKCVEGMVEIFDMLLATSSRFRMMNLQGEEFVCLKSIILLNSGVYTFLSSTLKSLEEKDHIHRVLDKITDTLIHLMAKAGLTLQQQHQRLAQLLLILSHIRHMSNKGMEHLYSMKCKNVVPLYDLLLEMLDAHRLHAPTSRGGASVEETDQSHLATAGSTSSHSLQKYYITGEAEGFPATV
Kind of experiment: [3H] estradiol binding to recombinant human ERalpha (radioligand displacement, MDS cat No. 226010). Particulars: test compound 10 μM; 0.5 nM [3H] estradiol; 2 hours at 25° C.; in comparison to the vehicle control (1% DMSO). The procedure:
Recombinant human ERalpha protein isolated from insect […] cells (MDS Pharma Services: cat No. 226010) was incubated with the test substance (dissolved in 1% DMSO) and 0.5 nM [^3H] estradiol for 2 hours at 25° C. in an incubation buffer (10 mM TrisHCl pH 7.4, 0.1% BSA, 10% Glycerol, 1 mM DTT). At the end of the incubation period, receptor-bound [^3H] estradiol was quantified. Stimulating or inhibiting effects equal or larger than 50% in comparison to vehicle control (1% DMSO) were considered to be significant. The final concentration of the test compound was 10 μM.
(§1) The assays described in Examples 4 and 5 were conducted by MDS (catalogue number 226010 for ERalpha and 226050 for ERbeta, respectively) following procedures established in literature (Obourn et al., Biochemistry 1993, 32: 6229-6236).

Experiment [2] concerns the target T2, Recombinant human ERbeta protein (Homo sapiens, UniProt Q92731).
T2 construct: purchased MDS Pharma Services 226050; host or cells: insect Sf9 cells
Kind of experiment: [3H] estradiol binding to recombinant human ERbeta (radioligand displacement, MDS cat No. 226050). To be noted: test compound 10 μM; 0.5 nM [3H] estradiol; 2 hours at 25° C.; in comparison to the vehicle control (1% DMSO). The protocol:
Recombinant human ERbeta protein isolated from insect Sf9 cells (MDS Pharma Services: cat No. 226050) was incubated with the test substance (dissolved in 1% DMSO) and 0.5 nM [^3H] estradiol for 2 hours at 25° C. in an incubation buffer (10 mM TrisHCl pH 7.4, 0.1% BSA, 10% Glycerol, 1 mM DTT). At the end of the incubation period, receptor-bound [^3H] estradiol was quantified. Stimulating or inhibiting effects equal or larger than 50% in comparison to vehicle control (1% DMSO) were considered to be significant. The final concentration of the test compound was 10 μM.
as §1
For orientation: Loss of bound radioactivity is the signal in a displacement assay; it reports binding, not function.

T2 sequence (Q92731 whole entry): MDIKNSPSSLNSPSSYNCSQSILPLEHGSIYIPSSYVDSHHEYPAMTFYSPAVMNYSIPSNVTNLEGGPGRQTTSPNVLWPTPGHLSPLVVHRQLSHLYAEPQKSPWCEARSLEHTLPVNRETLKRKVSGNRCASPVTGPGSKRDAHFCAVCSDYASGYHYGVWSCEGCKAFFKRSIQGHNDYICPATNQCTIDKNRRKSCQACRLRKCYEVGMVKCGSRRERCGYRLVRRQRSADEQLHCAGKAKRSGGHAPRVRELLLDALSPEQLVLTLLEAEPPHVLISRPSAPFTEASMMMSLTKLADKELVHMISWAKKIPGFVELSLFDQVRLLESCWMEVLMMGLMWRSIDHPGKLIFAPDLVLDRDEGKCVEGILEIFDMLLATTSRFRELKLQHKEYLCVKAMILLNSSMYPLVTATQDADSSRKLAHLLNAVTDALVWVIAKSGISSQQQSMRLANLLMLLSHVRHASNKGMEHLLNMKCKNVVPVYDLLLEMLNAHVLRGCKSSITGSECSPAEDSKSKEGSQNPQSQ

As a reminder, the inhibition is the relative decrease from the control value, in per cent. Take `O=C1/C(=C/c2ccc(O)cc2O)Oc2cc(O)cc(O)c21` [SM29 (3), 2′,4,4′,6-Tetrahydroxyaurone]: the results for the inhibition at 10 µM in experiment [1] and in experiment [2] were 2% and 13%, respectively.
For `O=C1/C(=C/c2ccc(O)cc2)Oc2cc(O)cc(O)c21` [SM30 (3), 4,4′,6-Trihydroxyaurone], in that order: 18% and 91%.
